Assay results from article PMC5344956 (Cancer Chemotherapy and Pharmacology, 2017).

Tests used:
[1] = Metabolite profiling of plasma (HPLC-radiochromatography); assay type: in vivo, human; settings: % of TRA
Procedure: For each subject, a 0–24 h pooled plasma sample was prepared according to the scheme outlined in the literature. In addition, several pooled plasma samples across all subjects were prepared at these time points: 5, 10, 12, […], and 48 h, and every 24 h thereafter until 240 h.
All pooled 0–24, 5, 10, 12, and 24 h plasma samples were processed as follows. […] The samples were vortexed for 30 min and centrifuged at 4500g at 4 °C for 6 min. The supernatants were transferred into new polypropylene tubes and kept on ice. The resulting plasma protein pellets were extracted twice to ensure good recovery and the extracts were combined. The combined extracts were loaded onto Ostro sample preparation plates (Waters Corporation, Milford, MA, USA), dried, eluted with 0.2 mL of cold acetonitrile, and all eluates were collected and evaporated under nitrogen (TurboVap LV; Caliper Life Sciences, Hopkinton, MA, USA). The dry residues were reconstituted in 0.1 mL of methanol, and a 0.005-mL aliquot was removed for determination of radioactivity. The remainder of the supernatants were transferred to high-performance liquid chromatography (HPLC) vials and stored at −80 °C until analysis.
Pooled post-24-h plasma samples were extracted using a slightly modified procedure. […] Appropriate volumes of formic acid were added to achieve a final concentration of 1%. Then, the samples were warmed to 37 °C and loaded to preconditioned Oasis HLB cartridges (Waters Corporation, Milford, MA, USA). These columns were then washed with water, dried under vacuum, and eluted with methanol. The eluates were collected and evaporated under nitrogen. The dry residues were reconstituted in 0.1 mL of methanol, and a 0.005-mL aliquot was removed for determination of radioactivity. The remainder of the supernatants were transferred to HPLC vials and stored at −80 °C until analysis.
(§1) A Finnigan Surveyor HPLC system (Thermo Fisher Scientific Inc., San Jose, CA, USA), consisting of an LC pump plus an autosampler and a UV–Vis plus detector, was used mostly for profiling (except the post-24-h plasma samples, which were analyzed using a Dionex HPLC system). A Phenomenex® Gemini® C18, 5-μm, 3.0 × 100-mm column (Phenomenex Inc., Torrance, CA, USA) was used along with a C-12 guard column (4 × 2 mm). LC conditions were as follows: solvent A was 10 mM ammonium bicarbonate in water (pH 10.0) and solvent B was 100% methanol and the flow rate was 0.8 mL/min. The following gradient was employed (B%): 0–5 min (20%), 32 min (42%), 33 min (60%), 55 min (70%), 56–60 min (95%), and 62–70 min (20%).
(§2) Reconstituted solvent extracts (0.050–0.10 mL) of plasma, urine, or feces were injected onto the HPLC column. The post-column eluate was split after UV detection into two streams (0.64 and 0.16 mL/min). The 0.64-mL stream was diverted to a fraction collector (Gilson FX 204; Gilson Medical Electronics, Middleton, WI, USA) to be collected in 96-well plates at 0.16 min/well (ScintiPlates; PerkinElmer Life Sciences, Shelton, CT, USA), and the 0.16-mL stream was directed to the mass spectrometer. The solvent in the 96-well plates was removed at 40 °C using a Genevac evaporator (Genevac, Inc., Stone Ridge, NY, USA).
(§3) The radioactivity counts per minute (CPM) in each well was determined using a MicroBeta scintillation counter (PerkinElmer Life and Analytical Sciences). The resulting CPM vs. time data were processed using Excel (Microsoft Corporation, Seattle, WA, USA). The CPM in each well was background-subtracted (using the average CPM values of the blank region of the HPLC run). Radiochromatographic profiles were obtained by plotting the resulting net CPM values against time after injection. Radioactive peaks in the chromatographic profiles were identified, and the radioactivity in each peak was summed and reported as a percentage of TRA in the HPLC run.

human liver microsomes = experiment: In vitro metabolism with human liver microsomes and CYP-specific chemical inhibitors (data not shown); assay type: in vitro ADME; settings: CYP-specific chemical inhibitors
[2] = Metabolite profiling of feces (HPLC-radiochromatography); assay type: in vivo, human; settings: 0–144 h pool; for % Distribution in matrix: % of fecal TRA
Procedure: One-gram samples of the fecal homogenates were transferred to 50-mL polypropylene tubes, extracted with 4 mL of methanol, and centrifuged (4500g). The resulting residues were extracted three more times (once with 2 mL of methanol and twice with 1 mL of methanol containing 1% formic acid) and centrifuged. All supernatants were combined and evaporated under nitrogen, and the residue was reconstituted with 0.5 mL of methanol, vortexed, sonicated, and centrifuged. A 0.010-mL aliquot of the supernatant was removed for determination of radioactivity, and the remainder of the supernatant was transferred to an HPLC vial and stored at −80 °C.
as §1, §2, §3

SMILES: Cc1ccc(C(=O)Nc2ccc(CN3CCN(C)CC3)c(C(F)(F)F)c2)cc1C#Cc1cnc2cccnn12.Cl [Ponatinib, 3-(imidazo[1,2-b]pyridazin-3-ylethynyl)-4-methyl-N-(4-((4-methylpiperazin-1-yl)methyl)-3-(trifluoromethyl)phenyl)benzamide hydrochloride]
- % Distribution in plasma ([1]; 0–24 h pooled plasma): 25.5%
- % Distribution in plasma ([1]; 5 h pooled plasma): 42.4%
- % Distribution in plasma ([1]; 10 h pooled plasma): 36.3%
- % Distribution in plasma ([1]; 12 h pooled plasma): 51.5%
- % Distribution in plasma ([1]; 36 h pooled plasma): 4.2%
- % Distribution in plasma ([1]; 48 h pooled plasma): 9.4%
- % Distribution in plasma ([1]; 72 h pooled plasma): 12.8%
- % Distribution in plasma ([1]; 96 h pooled plasma): 13.2%
- CYP enzymes that metabolize the compound (human liver microsomes): metabolized mostly by CYP3A4 and to a lesser extent by CYP2D6 and CYP2C8
- % of total radioactive dose [2]: 20.5/2.8%
- % Distribution in matrix [2]: 23.7/3.2%
- % Distribution in matrix ([2]; listed as ponatinib): 23.7%
- % of total radioactive dose ([2]; listed as ponatinib): 20.5%
